Reference: patent US10052301B2, “Derivatives of propane diyl dicinnamate” (ORX PHARMACEUTICAL CORPORATION, priority 2009, dated 2018)
Like-named read-outs stand apart in the source and are kept apart here.

What was measured:
B16-BL6 = conditions: Banskota et al., J Ethnopharmacol 2002; read-out: EC50 against B16-BL6; cited from earlier work
[1] = test system: GM9503 (normal human fibroblast cells); assay: MTT cell proliferation and viability assay, GM9503; format: cell-based; conditions: for EC50: Table 2, 72 h, read-out: Human (EC50) μM GM9503 (Normal Skin Fibroblast); for IC50: Table 4, comparative toxicity, 72 h, read-out: Inhibition Concentration (IC50) μM GM9503 (Normal human fibroblast)
Description: (§1) Normal human fibroblast cell lines (GM9503 and GM8399) and human carcinoma cell lines MCF-7, A549, HCT116, SKOV-3 and PC-3 were maintained in DMEM (Dulbeco's Modified Essential Medium) supplemented with 10% FBS (Fetal Bovine Serum). In addition, murine leukemia MDAY-D2 cells were maintained in RPMI 1640 media supplemented with 5% FBS. All media were supplemented with 100 […] (all from Hyclone, Logan, Utah). Cells were incubated in a humidified air atmosphere containing 5% CO2 at 37° C.
(§2) Cell growth and viability were measured using the 3-(4,5-dimethythiazol-2-yl)-2,5-diphenyl tetrazolium bromide (MTT) reduction assay. MTT reagent (Sigma, St. Louis, Mo.) was prepared at 5 mg/ml in ddH2O (5× solution), filter sterilized and stored in the dark at −20° C.
(§3) To determine the optimal number of cells to seed per well, preliminary experiments were conducted examining increasing cell densities in 96 well plates. Cell were seeded at various densities and examined under the microscope after 96 h. Based on these experiments and growth curve analyses, optimal cell densities were selected for each cell line. In brief, exponentially growing cells were harvested and 100 μL of cell suspension containing approximately 2000 cells was plated in 96-well microtiter plates. After 24 hours of incubation to allow for cell attachment, cells were treated with varying concentrations of test samples in medium (60 μL/well) supplemented with 5% FBS and incubated for 72 h at 37° C. under 5% CO2. Three hours after the addition of MTT, the amount of formazan formed was measured spectrophotometrically at 570 nm with a Spectramax Plus 384 plate reader.
(§4) To assess the effects of the novel compounds on growth and viability, GM9503 (normal human fibroblast cells; 2.08×10^3 cells/well), GM8399 (normal human fibroblast cells; 2.04×10^3 cells/well), A549 (human lung carcinoma cells; 2.05×10^3 cells/well), HCT116 (human colon carcinoma cells; 2.19×10^3 cells/well), MCF-7 (human breast carcinoma cells; 2.19×10^3 cells/well), SKOV-3 (human ovarian carcinoma cells; 2.10×10^3 cells/well), PC-3 (human prostate carcinoma cells; 2.08×10^3 cells/well) and MDAY-D2 (murine leukemia cells; 2.5×10^3 cells/well) were seeded in 96 well plates in supplemented medium. Twenty-four hours post-seeding, cells were treated with either DMEM supplemented with 5% FBS (as a control) or with compounds (IIb), (Ie) and (Id) at increasing concentrations. After incubation for 72 h, cell growth and viability were measured. Each compound was tested in triplicate and the data shown in Tables 2-4 represent the mean of viable cells compared to medium control.

[2] = test system: A549 (human lung carcinoma cells); assay: MTT cell proliferation and viability assay, A549; format: cell-based; conditions: for EC50: Table 2, 72 h; for IC50: Table 3, 72 h, read-out: Inhibition Concentration (IC50) μM A549 (Lung)
Description: as §1, §2, §3, §4

[3] = test system: HCT116 (human colon carcinoma cells); assay: MTT cell proliferation and viability assay, HCT116; format: cell-based; conditions: for IC50: HCT-116, Table 3, 72 h, read-out: Inhibition Concentration (IC50) μM HCT116 (Colon); for EC50: HCT-116, Table 2, 72 h
Description: as §1, §2, §3, §4

[4] = test system: SKOV-3 (human ovarian carcinoma cells); assay: MTT cell proliferation and viability assay, SKOV-3; format: cell-based; conditions: SK-OV-3, Table 3, 72 h, read-out: Inhibition Concentration (IC50) μM SKOV-3 (Ovarian)
Description: as §1, §2, §3, §4

[5] = test system: MCF-7 (human breast carcinoma cells); assay: MTT cell proliferation and viability assay, MCF-7; format: cell-based; conditions: for EC50: MCF7, Table 2, 72 h; for IC50: MCF7, Table 3, 72 h, read-out: Inhibition Concentration (IC50) μM MCF-7 (Breast)
Description: as §1, §2, §3, §4

[6] = test system: PC-3 (human prostate carcinoma cells); assay: MTT cell proliferation and viability assay, PC-3; format: cell-based; conditions: Table 3, 72 h, read-out: Inhibition Concentration (IC50) μM PC-3 (Prostate)
Description: as §1, §2, §3, §4

B-16 melanoma cell line = assay: [3H]-thymidine incorporation, in vitro anticancer activity; format: cell-based; conditions: B16, 24 h + 24 h incubation
Description: The cell lines were maintained in EMEM medium supplemented with 10% FCS, 0.1% sodium bicarbonate and 12 mM glutamine. In a typical procedure, 1×10^4 cells were seeded into each of 96 well plate in 90 μL volume of medium. The plates were incubated for 24 h in the presence of CO2 to allow for cell attachment. After 24 h, test compounds were evaluated at five 10 fold dilutions from 1:10, 1:100, 1:1000, 1:10000 and 1:100000. To each test well 100 μL of test compound solution was added and the medium with vehicle was added to control wells and the plates were further incubated. After 24 h of incubation, 10 μL of [3H]-thymidine was added to each well to obtain a 1 μCi concentration per well and incubated for a further 24 h. The plates were terminated, cells harvested and read by microbeta plate reader.

[7] = test system: Human colon carcinoma cell line HCT116; assay: Mechanism of action: microscopy of treated HCT116 cells over time; format: cell-based; conditions: 30 μM; for cell morphology (mechanism of cell death): imaged at 2-16 h, 63x magnification
Description: Human colon carcinoma cell line HCT116 was treated with compounds (IIb), (Ie) and (Id) and observed over a time period to determine the mechanism of cell death. The experiment was conducted as follows:
HCT116 cells were seeded and treated with each compound. At each time point, the cells were imaged using a neutral microscope at 63× magnification prior to fixing. The time points were 2, 4, 6, 8, 12, and 16 hours.
This may potentially be caused by a population doubling at this time-point.

[8] = test system: GM8399 (normal human fibroblast cells); assay: MTT cell proliferation and viability assay, GM8399; format: cell-based; conditions: Table 4, comparative toxicity, 72 h, read-out: Inhibition Concentration (IC50) μM GM8399 (normal human fibroblast)
Description: as §1, §2, §3, §4

[9] = test system: MDAY-D2 (murine leukemia cells); assay: MTT cell proliferation and viability assay, MDAY-D2; format: cell-based
Description: as §1, §2, §3, §4

[10] = Mus musculus, MDAY-D2, Table 2, 72 h

IC50 [2] [µM]	IC50 [3] [µM]	IC50 [4] [µM]	IC50 [5] [µM]	IC50 [6] [µM]	Structure (SMILES)	EC50 (B16-BL6) [µM]	IC50 ([1]; Homo sapiens, Fibroblast) [µM]	IC50 [8] [µM]	other results
–	–	–	–	–	CC(=O)OC(COC(=O)/C=C/c1ccc(O)cc1)COC(=O)/C=C/c1ccc(O)cc1 [(2E,2′E)-2-acetoxypropane-1,3-diyl bis(3-(4-hydroxyphenyl)acrylate)]	81.9	–	–	–
–	–	–	–	–	COc1cc(/C=C/C(=O)OCC(COC(=O)/C=C/c2ccc(O)cc2)OC(C)=O)ccc1O (stereo not shown) [(E)-2-acetoxy-3-(((E)-3-(4-hydroxy-3-methoxyphenyl)acryloyl)oxy)propyl 3-(4-hydroxyphenyl)acrylate]	66	–	–	–
–	–	–	–	–	O=C(/C=C/c1ccc(O)c(O)c1)OCc1ccccc1 [Benzyl caffeate, benzyl caffeate]	2.03	–	–	–
21	27	15.8	74.5	6.76	O=C(/C=C/c1ccc(O)c(O)c1)OCC(O)COC(=O)/C=C/c1ccc(O)c(O)c1 [Compound (IIb), (2E,2′E)-2-hydroxypropane-1,3-diyl bis(3-(3,4-dihroxyphenyl) acrylate]	–	71.2	38	EC50 ([1]; Homo sapiens, Fibroblast): 57.9 µM; EC50 [2]: 2.17 µM; EC50 [5]: 1 µM; EC50 (B-16 melanoma cell line): 6.12 µM; relative aggressiveness of apoptosis induction ([7]; compared among (IIb), (Ie), (Id)): the most aggressive; cell morphology (mechanism of cell death) [7]: exhibited the characteristic membrane blebbing morphology commonly seen during apoptosis; EC50 [9, 10]: 3.4 µM
18.2	11.5	22	85.2	9.07	COc1ccc(/C=C/C(=O)OCC(O)COC(=O)/C=C/c2ccccc2)cc1OC (stereo not shown) [Compound (Id), (E)-3-(cinnamoyloxy)-2-hydroxypropyl 3-(3,4-dimethoxyphenyl) acrylate]	–	60	16	EC50 [2]: 0.59 µM; EC50 [3]: 102 µM; EC50 [5]: 72.2 µM; EC50 (B-16 melanoma cell line): 1.08 µM; cell morphology (mechanism of cell death) [7]: exhibited the characteristic membrane blebbing morphology commonly seen during apoptosis; EC50 [9, 10]: 5 µM
33.2	27.9	16.5	33	9.04	O=C(/C=C/c1ccccc1)OCC(O)COC(=O)/C=C/c1ccc(O)c(O)c1 (stereo not shown) [Compound (Ie), (E)-3-(cinnamoyloxy)-2-hydroxypropyl 3-(3,4-dihydroxypheyl)acrylate]	–	37	23	EC50 [2]: 0.64 µM; EC50 [3]: 59.2 µM; EC50 [5]: 25.9 µM; cell morphology (mechanism of cell death) [7]: exhibited the characteristic membrane blebbing morphology commonly seen during apoptosis; EC50 [9, 10]: 1.5 µM
–	–	–	–	–	C[S+](C)[O-] [DMSO]	–	–	–	EC50 [1]: 20.3 µM; EC50 ([9]; Table 2, 72 h): 43.6 µM
–	–	–	–	–	O=C(O)/C=C/c1ccc(O)c(O)c1 [caffeic Acid, caffeic acid, reference compound]	–	22	24	–
–	–	–	–	–	O=C(/C=C/c1ccc(O)c(O)c1)OCC=Cc1ccccc1 [cinnamyl caffeate]	1.92	–	–	–
0.69	0.59	0.75	11.7	1.32	CC(=O)O[C@H]1C(=O)[C@@]2(C)[C@H]([C@H](OC(=O)c3ccccc3)[C@]3(O)C[C@H](OC(=O)[C@H](O)[C@@H](NC(=O)c4ccccc4)c4ccccc4)C(C)=C1C3(C)C)[C@]1(OC(C)=O)CO[C@@H]1C[C@@H]2O [paclitaxel, reference compound]	–	0.7	2.1	–
–	–	–	–	–	O=C(/C=C/c1ccc(O)c(O)c1)OCCc1ccccc1 [phenethyl caffeate]	3.16	–	–	–
